In brackets after ≈: the same amount, converted by molar mass.
Assays:
E. coli strain 25922 = assay: MIC by broth microdilution, E. coli strain 25922; type: cell-based; settings: Escherichia coli, 25922, E. coli strain 25922; read-out: Ec 25922 (MIC)
Method in brief: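 CLSI broth microdilution in cation-adjusted Mueller-Hinton broth, inoculum about 5×10^5 CFU/mL, 10% DMSO from the diluted series, 20 h at 35-37° C. MIC is the lowest concentration preventing visible growth, read by eye and at 600 nm.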

E. coli containing KPC-2 = assay: MIC by broth microdilution, E. coli containing KPC-2 (Ec KPC2 Iso); type: cell-based; settings: Escherichia coli, read-out: Ec KPC2 Iso (MIC), E. coli containing KPC-2 (carbapenemase from Klebsiella pneumoniae)
Method in brief: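 Host E. coli BW25113 pspB carrying multicopy pBAD18-kan plasmid with constitutive TEM-promoter KPC-2 expression (periplasmic signal sequence); broth microdilution per CLSI in cation-adjusted Mueller-Hinton broth, inoculum ~5×10^5 CFU/mL, compounds twofold serially diluted from DMSO masters (10% DMSO in dilution series added).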

SMILES	MIC (E. coli strain 25922) [µg/mL]	MIC (E. coli containing KPC-2) [µg/mL]
CC(C)(O/N=C(\C(=O)N[C@@H]1C(=O)N(S(=O)(=O)O)[C@@H]1Cn1ccccc1=O)c1csc(N)n1)C(=O)O [Example 15, 2-(((Z)-(1-(2-aminothiazol-4-yl)-2-oxo-2-(((3S,4R)-2-oxo-4-((2-oxopyridin-1(2H)-yl)methyl)-1-sulfoazetidin-3-yl)amino)ethylidene)amino)oxy)-2-methylpropanoic acid]	16 (≈ 30.3 µM)	8 (≈ 15.1 µM)
N=C(NC1CCNCC1)c1ccc(OC[C@H](O/N=C(\C(=O)N[C@@H]2C(=O)N(S(=O)(=O)O)[C@@H]2CN2CCOC2=O)c2csc(N)n2)C(=O)O)cc1 [Example 64, (S)-2-(((Z)-(1-(2-aminothiazol-4-yl)-2-oxo-2-(((3S,4R)-2-oxo-4-((2-oxooxazolidin-3-yl)methyl)-1-sulfoazetidin-3-yl)amino)ethylidene)amino)oxy)-3-(4-(N-(piperidin-4-yl)carbamimidoyl)phenoxy)propanoic acid]	0.5 (≈ 0.691 µM)	0.25 (≈ 0.345 µM)
CC(C)(O/N=C(\C(=O)N[C@@H]1C(=O)N(S(=O)(=O)O)[C@@H]1CN1CCC1=O)c1csc(N)n1)C(=O)O [Example 113, 2-(((Z)-(1-(2-aminothiazol-4-yl)-2-oxo-2-(((3S,4R)-2-oxo-4-((2-oxoazetidin-1-yl)methyl)-1-sulfoazetidin-3-yl)amino)ethylidene)amino)oxy)-2-methylpropanoic acid]	4 (≈ 7.93 µM)	4 (≈ 7.93 µM)
C[C@H](O/N=C(\C(=O)N[C@@H]1C(=O)N(S(=O)(=O)O)[C@@H]1Cn1cncn1)c1csc(N)n1)C(=O)O [Example 29, (S)-2-(((Z)-(2-(((2R,3S)-2-((1H-1,2,4-triazol-1-yl)methyl)-4-oxo-1-sulfoazetidin-3-yl)amino)-1-(2-aminothiazol-4-yl)-2-oxoethylidene)amino)oxy)propanoic acid]	0.25 (≈ 0.512 µM)	1 (≈ 2.05 µM)
N=C(N)c1ccc(OC[C@H](O/N=C(\C(=O)N[C@@H]2C(=O)N(S(=O)(=O)O)[C@@H]2Cn2cncn2)c2csc(N)n2)C(=O)O)cc1 [Example 107, (S)-2-(((Z)-(2-(((2R,3S)-2-((1H-1,2,4-triazol-1-yl)methyl)-4-oxo-1-sulfoazetidin-3-yl)amino)-1-(2-aminothiazol-4-yl)-2-oxoethylidene)amino)oxy)-3-(4-carbamimidoylphenoxy)propanoic acid]	0.25 (≈ 0.402 µM)	0.25 (≈ 0.402 µM)
Nc1nc(/C(=N/OC2(C(=O)O)CC2)C(=O)N[C@@H]2C(=O)N(S(=O)(=O)O)[C@@H]2Cn2cncn2)cs1 [Example 18, 1-(((Z)-(2-(((2R,3S)-2-((1H-1,2,4-triazol-1-yl)methyl)-4-oxo-1-sulfoazetidin-3-yl)amino)-1-(2-aminothiazol-4-yl)-2-oxoethylidene)amino)oxy)cyclopropanecarboxylic acid]	0.5 (≈ 0.999 µM)	0.25 (≈ 0.5 µM)
CC(C)(O/N=C(\C(=O)N[C@@H]1C(=O)N(S(=O)(=O)O)[C@@H]1Cn1ncc(CNC=N)n1)c1csc(N)n1)C(=O)O [Example 62, 2-(((Z)-(1-(2-aminothiazol-4-yl)-2-(((2R,3S)-2-((4-(formimidamidomethyl)-2H-1,2,3-triazol-2-yl)methyl)-4-oxo-1-sulfoazetidin-3-yl)amino)-2-oxoethylidene)amino)oxy)-2-methylpropanoic acid]	0.5 (≈ 0.895 µM)	2 (≈ 3.58 µM)
CN(CCCN)Cc1cnn(C[C@@H]2[C@H](NC(=O)/C(=N\OC3(C(=O)O)CC3)c3csc(N)n3)C(=O)N2S(=O)(=O)O)n1 [Example 115, 1-(((Z)-(2-(((2R,3S)-2-((4-(((3-aminopropyl)(methyl)amino)methyl)-2H-1,2,3-triazol-2-yl)methyl)-4-oxo-1-sulfoazetidin-3-yl)amino)-1-(2-aminothiazol-4-yl)-2-oxoethylidene)amino)oxy)cyclopropanecarboxylic acid]	0.125 (≈ 0.208 µM)	0.25 (≈ 0.416 µM)
CC(C)(O/N=C(\C(=O)N[C@@H]1C(=O)N(S(=O)(=O)O)[C@@H]1Cn1cc(C(=O)O)nn1)c1csc(N)n1)C(=O)O [Example 51, 1-(((2R,3S)-3-((Z)-2-(2-aminothiazol-4-yl)-2-(((2-carboxypropan-2-yl)oxy)imino)acetamido)-4-oxo-1-sulfoazetidin-2-yl)methyl)-1H-1,2,3-triazole-4-carboxylic acid]	> 64	16 (≈ 29.3 µM)
N=C(N)NCCCNCc1cnn(C[C@@H]2[C@H](NC(=O)/C(=N\OC3(C(=O)O)CC3)c3csc(N)n3)C(=O)N2S(=O)(=O)O)n1 [Example 114, 1-(((Z)-(1-(2-aminothiazol-4-yl)-2-(((2R,3S)-2-((4-(((3-guanidinopropyl)amino)methyl)-2H-1,2,3-triazol-2-yl)methyl)-4-oxo-1-sulfoazetidin-3-yl)amino)-2-oxoethylidene)amino)oxy)cyclopropanecarboxylic acid]	0.25 (≈ 0.398 µM)	≤ 0.06
NCc1cn(C[C@@H]2[C@H](NC(=O)/C(=N\OC3(C(=O)O)CC3)c3csc(N)n3)C(=O)N2S(=O)(=O)O)nn1 [Example 27, 1-(((Z)-(2-(((2R,3S)-2-((4-(aminomethyl)-1H-1,2,3-triazol-1-yl)methyl)-4-oxo-1-sulfoazetidin-3-yl)amino)-1-(2-aminothiazol-4-yl)-2-oxoethylidene)amino)oxy)cyclopropanecarboxylic acid]	≤ 0.06	0.125 (≈ 0.236 µM)
CC(C)(O/N=C(\C(=O)N[C@@H]1C(=O)N(S(=O)(=O)O)[C@@H]1CN1C[C@H](CO)OC1=O)c1csc(N)n1)C(=O)O [Example 72, 2-(((Z)-(1-(2-aminothiazol-4-yl)-2-(((2R,3S)-2-(((R)-5-(hydroxymethyl)-2-oxooxazolidin-3-yl)methyl)-4-oxo-1-sulfoazetidin-3-yl)amino)-2-oxoethylidene)amino)oxy)-2-methylpropanoic acid]	4 (≈ 7.27 µM)	4 (≈ 7.27 µM)
N=C(N[C@H]1C[C@H](N)C1)c1ccc(OC[C@H](O/N=C(\C(=O)N[C@@H]2C(=O)N(S(=O)(=O)O)[C@@H]2Cn2cncn2)c2csc(N)n2)C(=O)O)cc1 [Example 77, (S)-2-(((Z)-(2-(((2R,3S)-2-((1H-1,2,4-triazol-1-yl)methyl)-4-oxo-1-sulfoazetidin-3-yl)amino)-1-(2-aminothiazol-4-yl)-2-oxoethylidene)amino)oxy)-3-(4-(N-((1r,3S)-3-aminocyclobutyl)carbamimidoyl)phenoxy)propanoic acid]	0.25 (≈ 0.361 µM)	0.125 (≈ 0.181 µM)
CC(C)(O/N=C(\C(=O)N[C@@H]1C(=O)N(S(=O)(=O)O)[C@@H]1CN1CC[C@@H](NC(=N)N)C1=O)c1csc(N)n1)C(=O)O [Example 88, 2-(((Z)-(1-(2-aminothiazol-4-yl)-2-(((2R,3S)-2-(((R)-3-guanidino-2-oxopyrrolidin-1-yl)methyl)-4-oxo-1-sulfoazetidin-3-yl)amino)-2-oxoethylidene)amino)oxy)-2-methylpropanoic acid]	2 (≈ 3.47 µM)	4 (≈ 6.95 µM)
CC(C)(O/N=C(\C(=O)N[C@@H]1C(=O)N(S(=O)(=O)O)[C@@H]1CN1C[C@@H](CO)OC1=O)c1csc(N)n1)C(=O)O [Example 63, 2-(((Z)-(1-(2-aminothiazol-4-yl)-2-(((2R,3S)-2-(((S)-5-(hydroxymethyl)-2-oxooxazolidin-3-yl)methyl)-4-oxo-1-sulfoazetidin-3-yl)amino)-2-oxoethylidene)amino)oxy)-2-methylpropanoic acid]	32 (≈ 58.1 µM)	32 (≈ 58.1 µM)
CN(C)Cc1cnn(C[C@@H]2[C@H](NC(=O)/C(=N\OC(C)(C)C(=O)O)c3csc(N)n3)C(=O)N2S(=O)(=O)O)n1 [Example 99, 2-(((Z)-(1-(2-aminothiazol-4-yl)-2-(((2R,3S)-2-((4-((dimethylamino)methyl)-2H-1,2,3-triazol-2-yl)methyl)-4-oxo-1-sulfoazetidin-3-yl)amino)-2-oxoethylidene)amino)oxy)-2-methylpropanoic acid]	2 (≈ 3.57 µM)	4 (≈ 7.15 µM)
Nc1nc(/C(=N/OCC(=O)O)C(=O)N[C@@H]2C(=O)N(S(=O)(=O)O)[C@@H]2Cn2cncn2)cs1 [Example 17, 2-(((Z)-(2-(((2R,3S)-2-((1H-1,2,4-triazol-1-yl)methyl)-4-oxo-1-sulfoazetidin-3-yl)amino)-1-(2-aminothiazol-4-yl)-2-oxoethylidene)amino)oxy)acetic acid]	0.5 (≈ 1.05 µM)	0.25 (≈ 0.527 µM)
Nc1nc(/C(=N/OC2(C(=O)O)CC2)C(=O)N[C@@H]2C(=O)N(S(=O)(=O)O)[C@@H]2Cn2ncc(CN[C@@H]3CCNC3)n2)cs1 [Example 89, 1-(((Z)-(1-(2-aminothiazol-4-yl)-2-oxo-2-(((3S,4R)-2-oxo-4-((4-(((R)-pyrrolidin-3-ylamino)methyl)-2H-1,2,3-triazol-2-yl)methyl)-1-sulfoazetidin-3-yl)amino)ethylidene)amino)oxy)cyclopropanecarboxylic acid]	0.5 (≈ 0.835 µM)	1 (≈ 1.67 µM)
CC(C)(O/N=C(\C(=O)N[C@@H]1C(=O)N(S(=O)(=O)O)[C@@H]1CN1CCCCC1=O)c1csc(N)n1)C(=O)O [Example 14, 2-(((Z)-(1-(2-aminothiazol-4-yl)-2-oxo-2-(((3S,4R)-2-oxo-4-((2-oxopiperidin-1-yl)methyl)-1-sulfoazetidin-3-yl)amino)ethylidene)amino)oxy)-2-methylpropanoic acid]	16 (≈ 30 µM)	8 (≈ 15 µM)
CC(C)(O/N=C(\C(=O)N[C@@H]1C(=O)N(S(=O)(=O)O)[C@@H]1Cc1cc(CN)on1)c1csc(N)n1)C(=O)O [Example 82, 2-(((Z)-(2-(((2R,3S)-2-((5-(aminomethyl)isoxazol-3-yl)methyl)-4-oxo-1-sulfoazetidin-3-yl)amino)-1-(2-aminothiazol-4-yl)-2-oxoethylidene)amino)oxy)-2-methylpropanoic acid]	0.5 (≈ 0.941 µM)	0.5 (≈ 0.941 µM)
